In brackets after ≈: the same amount, converted by molar mass.
Experiments:
Assay in all cases: standard microtiter assay, minimum inhibitory concentration
Type in all cases: cell-based
[1] = tested on: Staphylococcus aureus; conditions: for MIC: Table 5 organism 1 S. aureus
Description: (§1) Representative results of standard microtiter assays are reported in Tables 1, 2 and 3 which follow, as the minimum inhibitory concentration of antibiotic (μg/ml).
(§2) In Table 1, test organisms 1-13 were different strains of Staphylococcus aureus, and 14-16 were different strains of Staphylococcus epidermidis. In Table 2, test organisms 1-5 were different strains of S. aureus; 6, 8, 12 and 14 were different strains of S. epidermidis; 7 was a Staphylococcus haemolyticus; 9 and 10 were different strains of Streptococcus faecalis; 11 was a Streptococcus pyogenes; and 13 was a Staphylococcus saprophyticus. In Table 3, test organisms 1-3 were different strains of S. aureus; 4 and 6 were different strains of S. epidermidis; 5 was a S. haemolyticus and 7 and 8 were different strains of Streptococcus faecalis. Except where individual components are indicated, the CWI-785 antibiotic employed was the CWI-785 complex; in some cases, HCl salts of the CWI-785 antibiotic were employed.
(§3) The number of strains tested is shown in parentheses below each organism. The average MIC is reported in μg/ml.
(§4) In Table 5 are shown data from standard microtiter assays carried out in a presence of no serum, 50% human serum (hum.) and 50% mouse serum (mse.). The test organisms were 1: S. aureus; 2,4 and 5: different strains of S. epidermidis; 3: S. haemolyticus; 6: S. saprophyticus; 7 and 8: different strains of S. faecalis.

[2] = tested on: Streptococcus faecalis
Description: as §1, §2, §3, §4

[3] = tested on: Staphylococcus epidermidis
Description: as §1, §2, §4

[4] = tested on: Staphylococcus haemolyticus; conditions: for MIC: Table 5 organism 3 S. haemolyticus
Description: as §1, §2, §4

[5] = tested on: Staphylococcus saprophyticus; conditions: for MIC: Table 5 organism 6 S. saprophyticus
Description: as §1, §2, §4

[6] = tested on: Streptococcus pyogenes; conditions: Table 2 test organism 11, Streptococcus pyogenes
Description: as §1, §2

For CNC(C(=O)NC1C(=O)NC(CC[S+](C)[O-])C(=O)NC2C(=O)NC3C(=O)NC(C(=O)NC(C(=O)O)c4cc(O)cc(O)c4-c4cc3ccc4O)C(OC3CC(N)C(O)C(C)O3)c3ccc(c(Cl)c3)Oc3cc2cc(c3O)Oc2ccc(cc2)C1O)c1ccc(O)cc1 (centres unmarked) [HPB3], the minimum inhibitory concentration ([1]; Table 2 test organism 1, S. aureus strain) was 0.8 µg/mL (≈ 0.612 µM), the minimum inhibitory concentration ([1]; Table 2 test organism 2, S. aureus strain) was 0.8 µg/mL (≈ 0.612 µM) and the minimum inhibitory concentration ([1]; Table 2 test organism 3, S. aureus strain) was 0.8 µg/mL (≈ 0.612 µM). For the same compound, the minimum inhibitory concentration ([1]; Table 2 test organism 4, S. aureus strain) was 0.4 µg/mL (≈ 0.306 µM), the minimum inhibitory concentration ([1]; Table 2 test organism 5, S. aureus strain) was 0.8 µg/mL (≈ 0.612 µM) and the MIC ([1]; 50% Hum. Serum) was 0.8 µg/mL (≈ 0.612 µM). It also gave an MIC ([1]; 50% Mse. Serum) of 0.8 µg/mL (≈ 0.612 µM), an MIC ([1]; No Serum) of 0.8 µg/mL (≈ 0.612 µM) and a minimum inhibitory concentration ([2]; Table 2 test organism 9, Streptococcus faecalis strain) of 0.8 µg/mL (≈ 0.612 µM). For the same compound, the minimum inhibitory concentration ([2]; Table 2 test organism 10, Streptococcus faecalis strain) was 0.8 µg/mL (≈ 0.612 µM), the MIC ([2]; Table 5 organism 7 S. faecalis, 50% Hum. Serum) was 3.1 µg/mL (≈ 2.37 µM) and the MIC ([2]; Table 5 organism 7 S. faecalis, 50% Mse. Serum) was 3.1 µg/mL (≈ 2.37 µM). It also gave an MIC ([2]; Table 5 organism 7 S. faecalis, No Serum) of 0.8 µg/mL (≈ 0.612 µM), an MIC ([2]; Table 5 organism 8 S. faecalis, 50% Hum. Serum) of 6.3 µg/mL (≈ 4.82 µM) and an MIC ([2]; Table 5 organism 8 S. faecalis, 50% Mse. Serum) of 3.1 µg/mL (≈ 2.37 µM). For the same compound, the MIC ([2]; Table 5 organism 8 S. faecalis, No Serum) was 0.8 µg/mL (≈ 0.612 µM), the minimum inhibitory concentration ([3]; Table 2 test organism 6, S. epidermidis strain) was 0.8 µg/mL (≈ 0.612 µM) and the minimum inhibitory concentration ([3]; Table 2 test organism 8, S. epidermidis strain) was 0.8 µg/mL (≈ 0.612 µM). For the same compound, the minimum inhibitory concentration ([3]; Table 2 test organism 12, S. epidermidis strain) was 0.8 µg/mL (≈ 0.612 µM), the minimum inhibitory concentration ([3]; Table 2 test organism 14, S. epidermidis strain) was 0.8 µg/mL (≈ 0.612 µM) and the MIC ([3]; Table 5 organism 2 S. epidermidis, 50% Hum. Serum) was 6.1 µg/mL (≈ 4.66 µM). It also gave an MIC ([3]; Table 5 organism 2 S. epidermidis, 50% Mse. Serum) of 1.6 µg/mL (≈ 1.22 µM), an MIC ([3]; Table 5 organism 2 S. epidermidis, No Serum) of 0.8 µg/mL (≈ 0.612 µM) and an MIC ([3]; Table 5 organism 4 S. epidermidis, 50% Hum. Serum) of 1.6 µg/mL (≈ 1.22 µM). For the same compound, the MIC ([3]; Table 5 organism 4 S. epidermidis, 50% Mse. Serum) was 1.6 µg/mL (≈ 1.22 µM), the MIC ([3]; Table 5 organism 4 S. epidermidis, No Serum) was 0.8 µg/mL (≈ 0.612 µM) and the MIC ([3]; Table 5 organism 5 S. epidermidis, 50% Hum. Serum) was 0.8 µg/mL (≈ 0.612 µM). For the same compound, the MIC ([3]; Table 5 organism 5 S. epidermidis, 50% Mse. Serum) was 0.8 µg/mL (≈ 0.612 µM), the MIC ([3]; Table 5 organism 5 S. epidermidis, No Serum) was 0.8 µg/mL (≈ 0.612 µM) and the minimum inhibitory concentration ([4]; Table 2 test organism 7, Staphylococcus haemolyticus) was 1.6 µg/mL (≈ 1.22 µM). For the same compound, the MIC ([4]; 50% Hum. Serum) was 6.3 µg/mL (≈ 4.82 µM), the MIC ([4]; 50% Mse. Serum) was 3.1 µg/mL (≈ 2.37 µM) and the MIC ([4]; No Serum) was 1.6 µg/mL (≈ 1.22 µM). The minimum inhibitory concentration ([5]; Table 2 test organism 13, Staphylococcus saprophyticus) was 0.8 µg/mL (≈ 0.612 µM), the MIC ([5]; 50% Hum. Serum) was 3.1 µg/mL (≈ 2.37 µM) and the MIC ([5]; 50% Mse. Serum) was 3.1 µg/mL (≈ 2.37 µM). For the same compound, the MIC ([5]; No Serum) was 0.8 µg/mL (≈ 0.612 µM) and the minimum inhibitory concentration [6] was 0.1 µg/mL (≈ 0.0765 µM).

Source: patent US4742045A, “Glycopeptide antibiotics” (SmithKline Beckman Corporation, priority 1986, dated 1988)
